The target of experiment [1] is Serine/threonine-protein kinase MRCK gamma (Homo sapiens, UniProt Q6DT37).
Experiment [2] deals with Protein-tyrosine kinase 6 (Homo sapiens, UniProt Q13882).
The target of experiment [3] is Serine/threonine-protein kinase N1 (Homo sapiens, UniProt Q16512).
In experiment [4] the target is Myosin light chain kinase, smooth muscle (Homo sapiens, UniProt Q15746).
Experiment [5] deals with Tyrosine-protein kinase BTK (Homo sapiens, UniProt Q06187).
The target of experiment [6] is Tyrosine-protein kinase Lyn (Homo sapiens, UniProt P07948).
Experiment [7] deals with T1, Serine/threonine-protein kinase D3 (Homo sapiens, UniProt O94806).
T1 sequence (O94806 whole entry): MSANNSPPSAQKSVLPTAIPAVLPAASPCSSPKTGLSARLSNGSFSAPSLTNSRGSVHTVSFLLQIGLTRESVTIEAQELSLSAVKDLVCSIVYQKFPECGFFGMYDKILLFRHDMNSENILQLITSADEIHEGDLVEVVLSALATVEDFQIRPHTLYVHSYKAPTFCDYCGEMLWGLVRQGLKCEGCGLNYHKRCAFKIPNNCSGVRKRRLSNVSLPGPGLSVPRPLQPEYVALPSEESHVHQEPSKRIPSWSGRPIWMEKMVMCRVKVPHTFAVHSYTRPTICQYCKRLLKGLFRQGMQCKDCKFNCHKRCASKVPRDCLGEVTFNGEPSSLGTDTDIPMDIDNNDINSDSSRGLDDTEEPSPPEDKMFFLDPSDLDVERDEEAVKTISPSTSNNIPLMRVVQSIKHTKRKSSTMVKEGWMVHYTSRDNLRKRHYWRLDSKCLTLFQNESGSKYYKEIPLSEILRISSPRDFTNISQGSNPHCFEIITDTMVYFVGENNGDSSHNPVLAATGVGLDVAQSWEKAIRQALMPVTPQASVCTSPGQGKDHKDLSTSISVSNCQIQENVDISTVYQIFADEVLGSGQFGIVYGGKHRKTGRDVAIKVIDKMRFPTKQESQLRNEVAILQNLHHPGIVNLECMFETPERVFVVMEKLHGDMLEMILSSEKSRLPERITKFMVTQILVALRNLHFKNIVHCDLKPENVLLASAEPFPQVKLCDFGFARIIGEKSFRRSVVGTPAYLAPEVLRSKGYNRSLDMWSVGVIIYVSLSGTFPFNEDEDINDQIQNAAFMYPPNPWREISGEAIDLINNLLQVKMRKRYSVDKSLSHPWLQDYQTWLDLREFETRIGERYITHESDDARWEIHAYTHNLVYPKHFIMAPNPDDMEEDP

The target in experiment [8] is Calcium/calmodulin-dependent protein kinase kinase 2 (Homo sapiens, UniProt Q96RR4).
For experiment [9], the target named is T2, Serine/threonine-protein kinase Nek9 (Homo sapiens, UniProt Q8TD19).
T2 sequence (Q8TD19 whole entry): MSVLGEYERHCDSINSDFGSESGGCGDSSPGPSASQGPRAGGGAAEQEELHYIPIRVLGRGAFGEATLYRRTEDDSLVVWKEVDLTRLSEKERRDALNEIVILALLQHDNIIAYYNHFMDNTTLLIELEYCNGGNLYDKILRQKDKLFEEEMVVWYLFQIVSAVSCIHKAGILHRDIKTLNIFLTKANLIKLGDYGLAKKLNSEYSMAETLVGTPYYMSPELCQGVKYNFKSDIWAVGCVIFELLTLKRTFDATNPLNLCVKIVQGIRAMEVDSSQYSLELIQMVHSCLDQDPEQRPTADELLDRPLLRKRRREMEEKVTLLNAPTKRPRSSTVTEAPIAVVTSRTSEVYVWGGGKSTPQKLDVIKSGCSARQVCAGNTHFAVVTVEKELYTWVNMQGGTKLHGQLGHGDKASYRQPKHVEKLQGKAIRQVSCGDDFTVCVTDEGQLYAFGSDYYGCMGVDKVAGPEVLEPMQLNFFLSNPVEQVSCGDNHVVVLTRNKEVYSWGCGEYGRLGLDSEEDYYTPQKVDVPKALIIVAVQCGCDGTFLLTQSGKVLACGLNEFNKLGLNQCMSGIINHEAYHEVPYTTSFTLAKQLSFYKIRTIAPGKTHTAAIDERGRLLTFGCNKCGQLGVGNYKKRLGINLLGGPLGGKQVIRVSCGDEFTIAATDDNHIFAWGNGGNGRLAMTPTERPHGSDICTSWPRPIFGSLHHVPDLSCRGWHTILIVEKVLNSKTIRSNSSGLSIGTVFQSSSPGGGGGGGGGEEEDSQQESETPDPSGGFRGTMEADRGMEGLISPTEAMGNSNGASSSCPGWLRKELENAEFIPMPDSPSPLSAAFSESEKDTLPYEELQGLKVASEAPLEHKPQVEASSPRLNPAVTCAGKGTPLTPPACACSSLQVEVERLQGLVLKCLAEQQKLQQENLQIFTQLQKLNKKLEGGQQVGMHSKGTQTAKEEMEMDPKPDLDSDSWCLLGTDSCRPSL

Experiment [10] concerns the target Casein kinase II subunit alpha' (Homo sapiens, UniProt P19784).
In a further experiment the target is Actin-related protein 2 (Homo sapiens, UniProt P61160).
The target in experiment [11] is Serine/threonine-protein kinase pim-1 (Homo sapiens, UniProt P11309).
Experiment [12] addresses T3, Tyrosine--tRNA ligase, cytoplasmic (Homo sapiens, UniProt P54577).
T3 sequence (P54577 whole entry): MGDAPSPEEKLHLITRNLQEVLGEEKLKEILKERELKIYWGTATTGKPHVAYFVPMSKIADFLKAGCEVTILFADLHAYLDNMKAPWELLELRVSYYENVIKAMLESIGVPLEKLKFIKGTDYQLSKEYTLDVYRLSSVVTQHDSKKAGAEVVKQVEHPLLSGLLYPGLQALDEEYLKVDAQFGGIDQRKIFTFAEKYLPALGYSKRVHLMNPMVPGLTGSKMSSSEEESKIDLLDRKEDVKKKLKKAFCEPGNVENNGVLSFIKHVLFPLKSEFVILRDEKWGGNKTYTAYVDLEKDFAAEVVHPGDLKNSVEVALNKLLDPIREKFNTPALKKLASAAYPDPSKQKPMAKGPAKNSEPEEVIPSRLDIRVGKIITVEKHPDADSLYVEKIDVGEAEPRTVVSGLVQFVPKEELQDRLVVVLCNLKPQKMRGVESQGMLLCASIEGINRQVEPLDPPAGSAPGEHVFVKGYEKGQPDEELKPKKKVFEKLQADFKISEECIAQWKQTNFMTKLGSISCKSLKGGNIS

The source made the active and inactive calls. For most assays here, no stated cut-off is given here; in the data, actives have a measured Kd and inactives only a lower limit.

Among the data in ChEMBL document CHEMBL3991601, “The target landscape of clinical kinase drugs” (Science, 2017) are Kd values, retold here.

Sequence of Tyrosine-protein kinase Lyn (P07948 whole entry): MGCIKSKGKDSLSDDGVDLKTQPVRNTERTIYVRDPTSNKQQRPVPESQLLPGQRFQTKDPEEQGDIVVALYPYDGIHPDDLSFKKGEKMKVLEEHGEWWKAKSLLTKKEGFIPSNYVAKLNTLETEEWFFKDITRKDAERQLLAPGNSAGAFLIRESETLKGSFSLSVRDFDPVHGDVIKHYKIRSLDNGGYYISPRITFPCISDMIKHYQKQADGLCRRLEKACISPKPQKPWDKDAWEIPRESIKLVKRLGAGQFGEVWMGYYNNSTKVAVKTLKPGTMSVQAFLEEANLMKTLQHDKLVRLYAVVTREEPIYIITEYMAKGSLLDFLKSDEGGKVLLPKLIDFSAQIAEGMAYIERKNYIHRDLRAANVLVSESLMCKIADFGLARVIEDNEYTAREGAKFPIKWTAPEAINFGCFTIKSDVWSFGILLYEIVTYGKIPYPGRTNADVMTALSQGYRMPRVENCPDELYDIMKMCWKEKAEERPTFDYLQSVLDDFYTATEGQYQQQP
Sequence of Calcium/calmodulin-dependent protein kinase kinase 2 (Q96RR4 whole entry): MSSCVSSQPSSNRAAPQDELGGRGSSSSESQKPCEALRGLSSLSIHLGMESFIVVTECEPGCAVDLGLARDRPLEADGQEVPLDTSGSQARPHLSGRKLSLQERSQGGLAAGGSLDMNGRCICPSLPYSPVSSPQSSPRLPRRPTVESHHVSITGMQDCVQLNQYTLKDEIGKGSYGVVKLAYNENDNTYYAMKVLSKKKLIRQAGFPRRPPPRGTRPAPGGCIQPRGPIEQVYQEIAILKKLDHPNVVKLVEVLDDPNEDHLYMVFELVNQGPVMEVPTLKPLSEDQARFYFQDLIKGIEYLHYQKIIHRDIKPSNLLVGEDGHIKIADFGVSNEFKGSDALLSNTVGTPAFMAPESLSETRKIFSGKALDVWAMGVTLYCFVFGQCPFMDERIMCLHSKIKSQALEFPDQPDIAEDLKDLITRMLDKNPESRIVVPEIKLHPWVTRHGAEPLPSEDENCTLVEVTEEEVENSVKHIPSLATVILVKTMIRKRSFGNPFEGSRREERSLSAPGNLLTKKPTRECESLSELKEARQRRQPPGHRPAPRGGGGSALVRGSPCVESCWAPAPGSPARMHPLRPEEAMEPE
Sequence of Serine/threonine-protein kinase N1 (Q16512 whole entry): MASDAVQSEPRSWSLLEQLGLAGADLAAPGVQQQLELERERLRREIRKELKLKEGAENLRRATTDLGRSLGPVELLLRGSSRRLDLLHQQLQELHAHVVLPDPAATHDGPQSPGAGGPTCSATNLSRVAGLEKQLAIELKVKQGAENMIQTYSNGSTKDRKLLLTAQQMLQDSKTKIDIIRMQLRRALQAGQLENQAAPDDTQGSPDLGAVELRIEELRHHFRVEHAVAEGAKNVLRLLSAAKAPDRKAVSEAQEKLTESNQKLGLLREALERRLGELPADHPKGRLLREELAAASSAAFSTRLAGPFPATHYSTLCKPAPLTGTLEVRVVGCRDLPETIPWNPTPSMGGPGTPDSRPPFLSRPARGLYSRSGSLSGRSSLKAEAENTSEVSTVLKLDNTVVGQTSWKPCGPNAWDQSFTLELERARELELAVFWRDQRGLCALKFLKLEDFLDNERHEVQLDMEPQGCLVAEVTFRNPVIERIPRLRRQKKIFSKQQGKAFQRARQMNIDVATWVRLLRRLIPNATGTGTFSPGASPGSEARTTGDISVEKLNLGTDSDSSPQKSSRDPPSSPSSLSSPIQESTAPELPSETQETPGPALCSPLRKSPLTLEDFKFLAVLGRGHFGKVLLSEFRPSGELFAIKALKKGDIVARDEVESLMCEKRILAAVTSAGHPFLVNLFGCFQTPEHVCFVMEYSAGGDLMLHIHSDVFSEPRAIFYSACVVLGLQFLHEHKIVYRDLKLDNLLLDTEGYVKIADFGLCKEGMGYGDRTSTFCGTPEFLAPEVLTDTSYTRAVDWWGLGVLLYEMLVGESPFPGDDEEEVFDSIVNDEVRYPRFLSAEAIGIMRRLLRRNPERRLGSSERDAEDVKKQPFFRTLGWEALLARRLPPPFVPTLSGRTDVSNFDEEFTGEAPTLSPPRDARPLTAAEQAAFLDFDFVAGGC
Sequence of Casein kinase II subunit alpha' (P19784 whole entry): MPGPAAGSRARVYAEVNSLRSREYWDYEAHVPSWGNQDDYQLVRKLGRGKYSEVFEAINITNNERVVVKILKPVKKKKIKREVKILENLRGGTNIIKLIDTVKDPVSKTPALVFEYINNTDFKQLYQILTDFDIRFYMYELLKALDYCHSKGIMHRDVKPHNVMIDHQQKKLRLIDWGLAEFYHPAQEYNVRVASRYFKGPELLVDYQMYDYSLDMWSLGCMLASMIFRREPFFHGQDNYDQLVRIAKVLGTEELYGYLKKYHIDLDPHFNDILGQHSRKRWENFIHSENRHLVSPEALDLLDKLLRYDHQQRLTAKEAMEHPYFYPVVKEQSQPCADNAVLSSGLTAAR
Sequence of Serine/threonine-protein kinase MRCK gamma (Q6DT37 whole entry): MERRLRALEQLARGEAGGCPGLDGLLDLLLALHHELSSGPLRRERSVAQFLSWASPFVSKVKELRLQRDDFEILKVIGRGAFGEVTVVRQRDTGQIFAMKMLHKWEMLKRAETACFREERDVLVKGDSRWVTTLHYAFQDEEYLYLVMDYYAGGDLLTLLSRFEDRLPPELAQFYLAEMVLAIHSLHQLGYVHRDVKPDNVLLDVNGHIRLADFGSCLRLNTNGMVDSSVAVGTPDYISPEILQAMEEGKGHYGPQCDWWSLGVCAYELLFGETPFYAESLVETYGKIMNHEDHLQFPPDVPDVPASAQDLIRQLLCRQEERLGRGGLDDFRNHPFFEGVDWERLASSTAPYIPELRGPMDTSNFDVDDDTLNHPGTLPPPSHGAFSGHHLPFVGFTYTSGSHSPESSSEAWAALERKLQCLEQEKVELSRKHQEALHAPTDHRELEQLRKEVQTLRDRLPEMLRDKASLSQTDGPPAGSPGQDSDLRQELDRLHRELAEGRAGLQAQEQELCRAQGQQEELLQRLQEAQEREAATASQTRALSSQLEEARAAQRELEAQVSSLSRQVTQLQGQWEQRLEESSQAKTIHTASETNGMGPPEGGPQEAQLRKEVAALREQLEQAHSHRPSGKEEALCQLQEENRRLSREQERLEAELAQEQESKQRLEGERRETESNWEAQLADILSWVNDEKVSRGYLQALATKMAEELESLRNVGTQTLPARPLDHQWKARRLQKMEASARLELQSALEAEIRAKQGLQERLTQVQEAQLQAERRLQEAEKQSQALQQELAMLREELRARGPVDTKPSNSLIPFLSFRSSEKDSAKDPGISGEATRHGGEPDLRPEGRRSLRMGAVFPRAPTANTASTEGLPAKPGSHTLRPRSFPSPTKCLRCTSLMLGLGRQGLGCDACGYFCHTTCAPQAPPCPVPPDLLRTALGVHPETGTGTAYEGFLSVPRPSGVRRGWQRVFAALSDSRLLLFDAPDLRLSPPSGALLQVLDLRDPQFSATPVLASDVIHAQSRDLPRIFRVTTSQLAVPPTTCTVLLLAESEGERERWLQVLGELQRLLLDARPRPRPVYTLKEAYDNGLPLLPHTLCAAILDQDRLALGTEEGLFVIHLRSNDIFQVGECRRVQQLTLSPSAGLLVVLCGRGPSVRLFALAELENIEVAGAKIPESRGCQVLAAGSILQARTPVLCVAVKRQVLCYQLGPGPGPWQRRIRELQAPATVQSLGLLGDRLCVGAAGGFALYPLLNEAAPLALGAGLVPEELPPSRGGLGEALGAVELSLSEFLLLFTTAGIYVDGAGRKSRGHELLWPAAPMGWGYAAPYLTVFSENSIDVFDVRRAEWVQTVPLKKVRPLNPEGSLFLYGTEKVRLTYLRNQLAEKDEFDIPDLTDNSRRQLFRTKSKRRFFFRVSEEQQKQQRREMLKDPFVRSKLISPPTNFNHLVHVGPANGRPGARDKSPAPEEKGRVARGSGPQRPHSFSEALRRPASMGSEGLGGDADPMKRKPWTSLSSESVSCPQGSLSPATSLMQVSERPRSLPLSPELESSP
Sequence of Protein-tyrosine kinase 6 (Q13882 whole entry): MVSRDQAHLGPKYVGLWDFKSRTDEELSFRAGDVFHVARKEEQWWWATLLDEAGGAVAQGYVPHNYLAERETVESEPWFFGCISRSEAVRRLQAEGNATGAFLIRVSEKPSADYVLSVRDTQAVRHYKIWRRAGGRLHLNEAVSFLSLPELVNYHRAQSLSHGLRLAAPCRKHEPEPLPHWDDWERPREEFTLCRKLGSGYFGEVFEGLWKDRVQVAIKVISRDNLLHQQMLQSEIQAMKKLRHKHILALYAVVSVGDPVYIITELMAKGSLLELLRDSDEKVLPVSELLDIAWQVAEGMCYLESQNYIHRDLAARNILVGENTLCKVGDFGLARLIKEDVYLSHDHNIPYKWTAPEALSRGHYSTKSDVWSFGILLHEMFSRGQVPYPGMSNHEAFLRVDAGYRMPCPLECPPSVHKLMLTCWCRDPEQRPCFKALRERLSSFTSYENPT
Sequence of Tyrosine-protein kinase BTK (Q06187 whole entry): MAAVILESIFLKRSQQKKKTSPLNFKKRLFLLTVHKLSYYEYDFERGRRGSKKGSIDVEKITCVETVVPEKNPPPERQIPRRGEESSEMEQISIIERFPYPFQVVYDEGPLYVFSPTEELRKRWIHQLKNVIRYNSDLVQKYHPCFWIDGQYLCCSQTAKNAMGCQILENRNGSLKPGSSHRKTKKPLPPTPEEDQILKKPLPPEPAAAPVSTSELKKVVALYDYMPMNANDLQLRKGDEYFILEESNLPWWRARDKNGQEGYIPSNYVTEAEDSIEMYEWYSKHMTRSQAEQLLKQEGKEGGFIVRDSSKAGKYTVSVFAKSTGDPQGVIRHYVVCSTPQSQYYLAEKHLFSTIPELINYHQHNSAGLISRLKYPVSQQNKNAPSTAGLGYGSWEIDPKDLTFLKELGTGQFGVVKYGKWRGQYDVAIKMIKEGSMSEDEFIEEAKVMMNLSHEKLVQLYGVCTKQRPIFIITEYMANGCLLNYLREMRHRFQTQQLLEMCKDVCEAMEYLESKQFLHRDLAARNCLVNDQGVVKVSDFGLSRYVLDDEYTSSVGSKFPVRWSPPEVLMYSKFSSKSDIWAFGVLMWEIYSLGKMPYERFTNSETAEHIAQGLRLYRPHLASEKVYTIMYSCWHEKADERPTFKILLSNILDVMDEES

For the compound `COc1cc(Nc2ncc(F)c(Nc3ccc4c(n3)N(COP(=O)(O)O)C(=O)C(C)(C)O4)n2)cc(OC)c1OC` [FOSTAMATINIB], the Kd in experiment [1], in experiment [2], in experiment [3], in experiment [4], in experiment [5] and in experiment [6] was > 30 µM (inactive) in each case. In addition, the Kd is > 30 µM (inactive) in experiment [7]; > 30 µM (inactive) in [8]; 0.041 µM (active) in experiment [9]; > 30 µM (inactive) in experiment [10]; > 30 µM (inactive) on Actin-related protein 2; > 30 µM (inactive) in experiment [11]. For the same compound, the Kd in experiment [12] is > 30 µM (inactive).

In the case of `C#Cc1cccc(Nc2ncnc3cc4c(cc23)OCCOCCOCCO4)c1` [ICOTINIB], the Kd in [1], in [2], in experiment [3], in [4], in experiment [5] and in experiment [6] was > 30 µM (inactive) throughout. Also, the Kd (in experiment [7]; in experiment [8]; in [9]; in experiment [10]; at Actin-related protein 2; in [11]) was > 30 µM (inactive) throughout. Besides, in experiment [12], the Kd was > 30 µM (inactive).

`Cn1cc(-c2[nH]c3cc(NC(=O)[C@H](N)C4CCCCC4)cc4c3c2C=NNC4=O)cn1`: the Kd in experiment [1] is > 30 µM (inactive); in experiment [2], > 30 µM (inactive); in experiment [3], 0.119 µM (active); in [4] it was > 30 µM (inactive); in experiment [5] it was 2.84 µM (active); in experiment [6], 0.331 µM (active). Further, the Kd in [7] was > 30 µM (inactive); in experiment [8] it was > 30 µM (inactive); in experiment [9], > 30 µM (inactive); in experiment [10] it was 14.8 µM (active); at Actin-related protein 2, > 30 µM (inactive); in experiment [11] it was > 30 µM (inactive). For the same compound, in [12], the Kd is > 30 µM (inactive).

`FC(F)(F)c1ccc(CNc2ccc(Cc3c[nH]c4ncc(Cl)cc34)cn2)cn1` [PEXIDARTINIB]: the Kd in [1], in [2], in experiment [3], in experiment [4], in experiment [5] and in [6] was > 30 µM (inactive) in each case. The Kd (in experiment [7]; in experiment [8]; in [9]; in [10]; at Actin-related protein 2; in experiment [11]) was > 30 µM (inactive) throughout. In [12], the Kd was > 30 µM (inactive).

With `Cc1cc(C(=O)Nc2cc(Oc3ccc4nc(NC(=O)C5CC5)cn4n3)ccc2C)n(C)n1` [TAK-593], the Kd in experiment [1], in experiment [2], in experiment [3], in [4], in [5] and in [6] was > 30 µM (inactive) each time. For the same compound, the Kd (in experiment [7]; in [8]; in experiment [9]; in [10]; at Actin-related protein 2; in experiment [11]) was > 30 µM (inactive) throughout. For the same compound, the Kd in [12] was > 30 µM (inactive).

With `NC[C@@](O)(c1ccc(Cl)cc1)c1ccc(-c2cn[nH]c2)cc1` [AT-13148], the Kd in experiment [1] was > 30 µM (inactive); in experiment [2] it was > 30 µM (inactive); in experiment [3] it was 0.025 µM (active); in experiment [4], > 30 µM (inactive); in experiment [5], > 30 µM (inactive); in [6] it was > 30 µM (inactive). Further, the Kd (in [7]; in [8]; in experiment [9]; in experiment [10]; at Actin-related protein 2; in experiment [11]) was > 30 µM (inactive) in each case. In experiment [12], the Kd is > 30 µM (inactive).

With `C=CC(=O)Nc1cccc(Nc2nc(Nc3ccc(N4CCN(C(C)=O)CC4)cc3OC)ncc2C(F)(F)F)c1` [ROCILETINIB], the Kd was > 30 µM (inactive) in experiment [1]; > 30 µM (inactive) in [2]; > 30 µM (inactive) in [3]; > 30 µM (inactive) in experiment [4]; 0.547 µM (active) in [5]; > 30 µM (inactive) in [6]. For the same compound, the Kd (in experiment [7]; in experiment [8]; in [9]; in experiment [10]; at Actin-related protein 2; in experiment [11]) was > 30 µM (inactive) throughout. In addition, in experiment [12], the Kd was > 30 µM (inactive).

Regarding `CCc1cc2c(cc1N1CCC(N3CCOCC3)CC1)C(C)(C)c1[nH]c3cc(C#N)ccc3c1C2=O` [ALECTINIB], the Kd in experiment [1], in [2], in experiment [3], in experiment [4], in experiment [5] and in [6] was > 30 µM (inactive) each time. Moreover, the Kd in [7] is > 30 µM (inactive); in experiment [8], 35.6 µM (active); in experiment [9], > 30 µM (inactive); in experiment [10], > 30 µM (inactive); on Actin-related protein 2, > 30 µM (inactive); in experiment [11], > 30 µM (inactive). The Kd in [12] was > 30 µM (inactive).

In general, Kd refers to a measure of binding affinity in units of concentration.
